# “And” between values parts separate entries of the source, which are not always exact repeats. Identical values can stand only once. Like-named read-outs stand apart in the source and are kept apart here.
# Tests used:
# [1] = biological target: T1, TLX ligand binding domain (Homo sapiens, UniProt Q9Y466); assay: TLX ligand sensing assay (AlphaScreen, RIP140 NR box peptide recruitment); type: biochemical; conditions: for TLX max. efficacy: oleic acid = 100
# T1 construct: purchased NovAliX SAS, Strasbourg, France
# GPR120 = biological target: T2, GPR120 (Homo sapiens, UniProt Q5NUL3); assay: PathHunter β-arrestin assay (Eurofins Discovery), GPR120; type: cell-based; conditions: for EC50: β-arrestin assay, read-out: GPR120 EC50 measured; for GPR120 max. efficacy: oleic acid = 100
# T2 sequence (Q5NUL3 1-361): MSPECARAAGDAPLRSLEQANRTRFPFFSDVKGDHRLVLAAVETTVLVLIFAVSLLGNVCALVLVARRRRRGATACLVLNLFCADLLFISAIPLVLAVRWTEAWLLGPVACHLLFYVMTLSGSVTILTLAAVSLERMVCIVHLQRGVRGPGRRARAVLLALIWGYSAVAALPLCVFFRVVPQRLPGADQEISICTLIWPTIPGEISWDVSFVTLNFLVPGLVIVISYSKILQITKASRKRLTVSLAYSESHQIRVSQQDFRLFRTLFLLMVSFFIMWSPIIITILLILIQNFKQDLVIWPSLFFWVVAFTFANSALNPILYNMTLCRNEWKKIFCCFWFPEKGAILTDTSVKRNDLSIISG
# Method: (§1) With these compounds in hand, attention was directed at evaluating their properties as ligands to GPR40, GPR120,[24] and TLX. Initial profiling experiments were conducted targeting the GPCR targets at a single concentration (15 μM) in a commercially available β-arrestin assay.
# (§2) Functional assays at GPR40 and GPR120 were conducted by Eurofins Discovery services using their PathHunter® b-Arrestin assay that monitors the activation of a GPCR in a homogenous, non-imaging assay format using a technology developed by DiscoverX called Enzyme Fragment Complementation (EFC) with b-galactosidase (b-Gal) as the functional reporter. b-Arrestin GPCR cell lines built on the principles of EFC are engineered to co-express the ProLinkTM (PK) tagged GPCR and the Enzyme Acceptor (EA) tagged b-Arrestin. Activation of the GPCR-PK induces b-Arrestin-EA recruitment, forcing complementation of the two b-galactosidase enzyme fragments (EA and PK). The resulting functional enzyme hydrolyzes substrate to generate chemiluminescent […]
# (§3) Additional information can be found at: www.eurofinsdiscovery.com/solution/b-arrestin Below are dose-response curves generated from Eurofins Discovery services for activity of ligands depicted in Figure 6B at GPR40 (FFAR1) and GPR120. […]
# GPR40 (FFAR1) = GPR40 (FFAR1) (Homo sapiens, UniProt O14842); assay: PathHunter β-arrestin assay (Eurofins Discovery), GPR40; type: cell-based; conditions: for EC50 / GPR40 max. efficacy: dose-response; for EC50: β-arrestin assay, read-out: GPR40 EC50 measured; for GPR40 max. efficacy: oleic acid = 100; for GPR40 potency relative to oleic acid: EC50 ratio vs control oleic acid
# Method: as §1, §2, §3
# [2] = Metabolic stability / intrinsic clearance in cryopreserved human hepatocytes; conditions: for hepatocyte CLint at 1 µM / half-life at 1 µM: human
# Method: To gain insight into potential metabolic issues, a preliminary assessment of 1-E and 3-C in a metabolic stability assay utilizing human hepatocytes was conducted.
# 7.1. ADME-Tox: In Vitro Metabolism
# Intrinsic clearance (cr yopreserved hepatocytes, human)
# Note: Unit of Clint is µ L/min/mg for microsomes, S9 and UGT assa ys; µL/min/pmol for CYP assays; µ L/min/Million cells for hepatocyte assays […]
# 8.1. Experimental Conditions
# 8.1.1. ADME-Tox: In Vitro Metabolism
# 8.2. Analysis and expression of results
# 8.2.1. ADME-Tox: In Vitro Metabolism
# Intrinsic Clearance (microsomes, S9, cryopreserved hepatocytes, reco mbinant CYP, recombinant UGT) Metabolic stability, expressed as percent of the parent compound remaining , was calculated by comparing the peak area of the compound at the time point relative to that at time -0. The ha lf-life (T1/2) was estimated from the slope of the initial linear range of the logarithmic curve of compound remaining (%) vs. time, assu ming the first -order kinetics. The apparent intrinsic cleara nce (CLint, in µL/min/pmol, µL/min/mg or µL/min/Mcell ) was calculated according to the following formula: […]
# T1/2*(mg protein/µL or million cells/µL or pmol CYP iso zyme/µL)
# [3] = ALPHA normalized, supplement, read-out: TLX EC50 (dose-response curves)
# [4] = maximal efficacy measured at 100 μM
# [5] = coactivator recruitment, read-out: TLX EC50
# [6] = cryopreserved human hepatocytes
# [7] = cryopreserved human hepatocytes, Half-life (mean), human hepatocytes, 1.0E-06 M
# [8] = cryopreserved human hepatocytes, Half-life, single replicates (1st, 2nd, 3rd), human hepatocytes, 1.0E-06 M
# GPR40 (FFAR1), sequence (O14842 whole entry): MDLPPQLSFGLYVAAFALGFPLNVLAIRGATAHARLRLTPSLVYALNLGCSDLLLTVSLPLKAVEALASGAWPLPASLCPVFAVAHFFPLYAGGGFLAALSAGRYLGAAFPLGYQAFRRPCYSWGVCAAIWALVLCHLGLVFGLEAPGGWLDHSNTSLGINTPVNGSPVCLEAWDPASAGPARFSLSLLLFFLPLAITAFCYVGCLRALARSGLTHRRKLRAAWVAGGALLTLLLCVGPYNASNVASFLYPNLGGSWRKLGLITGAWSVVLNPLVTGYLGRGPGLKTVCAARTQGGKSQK
# T1 sequence (Q9Y466 155-383 limits assumed): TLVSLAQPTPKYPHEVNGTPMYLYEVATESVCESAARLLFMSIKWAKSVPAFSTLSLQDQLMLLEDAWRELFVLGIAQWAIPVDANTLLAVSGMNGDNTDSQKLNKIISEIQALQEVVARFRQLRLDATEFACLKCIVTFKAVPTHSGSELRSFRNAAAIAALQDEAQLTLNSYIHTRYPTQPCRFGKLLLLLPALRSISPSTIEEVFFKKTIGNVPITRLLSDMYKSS
structure (smiles),measurement,setting,value
CCCCCCCCCC/C=C(/C)C/C(C)=C/[C@H](C)CC(=O)O [1-A],EC50,[1]; [3],2180 nM
CCCCCCCCCC/C=C(/C)C/C(C)=C/[C@@H](C)CC(=O)O [1-B],EC50,[1]; [3],2360 nM
CCCCCCCCC[C@@H](C)/C=C(/C)C/C(C)=C/[C@H](C)CC(=O)O [1-C],EC50,GPR120; dose-response,> 51000 nM
same,GPR120 max. efficacy,GPR120; [4],29%
same,EC50,[1]; [3],3120 nM
same,EC50,GPR40 (FFAR1),7.8 µM
same,GPR40 max. efficacy,GPR40 (FFAR1),109%
CCCCCCCCC[C@@H](C)/C=C(/C)C/C(C)=C/[C@@H](C)CC(=O)O [1-D],EC50,[1]; [3],3170 nM
CCCCCCCCC[C@H](C)/C=C(/C)C/C(C)=C/[C@@H](C)CC(=O)O [1-F],EC50,GPR120; dose-response,> 42000 nM
same,GPR120 max. efficacy,GPR120; [4],31%
same,EC50,[1]; [3],1870 nM
same,EC50,GPR40 (FFAR1),7.2 µM
same,GPR40 max. efficacy,GPR40 (FFAR1),123%
CCCCCCCC/C=C(/C)C/C(C)=C/[C@H](C)CCCC(=O)O [2-A],EC50,[1]; [3],2510 nM
CCCCCCCC/C=C(/C)C/C(C)=C/[C@@H](C)CCCC(=O)O [2-B],EC50,[1]; [3],3080 nM
CCCCCCC[C@@H](C)/C=C(/C)C/C(C)=C/[C@H](C)CCCC(=O)O [2-C],EC50,GPR120; dose-response,2600 nM
same,GPR120 max. efficacy,GPR120; dose-response,31%
same,EC50,[1]; [3],1510 nM
same,GPR40 potency relative to oleic acid,GPR40 (FFAR1),~7 times
same,EC50,GPR40 (FFAR1),6.2 µM and ~5 µM
same,GPR40 max. efficacy,GPR40 (FFAR1),95%
CCCCCCC[C@@H](C)/C=C(/C)C/C(C)=C/[C@@H](C)CCCC(=O)O [2-D],EC50,GPR120; dose-response,≥ 7500 nM and 1000 to 7000 nM
same,GPR120 max. efficacy,GPR120; [4],44%
same,EC50,[1]; [3],1320 nM
same,GPR40 potency relative to oleic acid,GPR40 (FFAR1),~7 times
same,EC50,GPR40 (FFAR1),5.5 µM and ~5 µM
same,GPR40 max. efficacy,GPR40 (FFAR1),87%
CCCCCCC[C@H](C)/C=C(/C)C/C(C)=C/[C@H](C)CCCC(=O)O [2-E],selectivity for GPR120,GPR120; GPR120 over GPR40,5 fold
same,EC50,GPR120; dose-response,1100 nM
same,GPR120 max. efficacy,GPR120; dose-response,35%
same,EC50,[1]; [3],1310 nM
same,GPR40 potency relative to oleic acid,GPR40 (FFAR1),~7 times
same,EC50,GPR40 (FFAR1),5 µM and ~5 µM
same,GPR40 max. efficacy,GPR40 (FFAR1),68%
CCCCCCC[C@H](C)/C=C(/C)C/C(C)=C/[C@@H](C)CCCC(=O)O [2-F],EC50,[1]; [3],1560 nM
CCCCCC/C=C(/C)C/C(C)=C/[C@H](C)CCCCCC(=O)O [3-A],EC50,[1]; [3],1560 nM
CCCCCC/C=C(/C)C/C(C)=C/[C@@H](C)CCCCCC(=O)O [3-B],EC50,[1]; [3],934 nM
same,EC50,[1]; [5],900 nM
same,TLX max. efficacy,[1],79%
CCCCC[C@@H](C)/C=C(/C)C/C(C)=C/[C@H](C)CCCCCC(=O)O [3-C],EC50,[1]; [3],818 nM
same,EC50,[1]; [5],800 nM
same,TLX max. efficacy,[1],66%
same,"Half-life, single replicates (1st, 2nd, 3rd)","[2]; human hepatocytes, 1.0E-06 M, listed as GCM/LEM 3-C",111.7 min and 110.9 min
same,hepatocyte CLint at 1 µM,[2]; [6],8.7 µL/min/1e6 cells
same,half-life at 1 µM,[2]; [7],114 min
same,half-life at 1 µM,[2]; [8],118 min
same,"% Compound Remaining, mean","[2]; incubation 30 minutes, 1.0E-06 M",96 % remaining
same,"% Compound Remaining, single replicates (1st, 2nd, 3rd)","[2]; incubation 30 minutes, 1.0E-06 M, listed as GCM/LEM 3-C",97.3 % remaining and 95.1 % remaining and 96.7 % remaining
same,"% Compound Remaining, mean","[2]; incubation 60 minutes, 1.0E-06 M",75 % remaining
same,"% Compound Remaining, single replicates (1st, 2nd, 3rd)","[2]; incubation 60 minutes, 1.0E-06 M, listed as GCM/LEM 3-C",72.5 % remaining and 71.7 % remaining and 79.8 % remaining
same,"% Compound Remaining, mean","[2]; incubation 90 minutes, 1.0E-06 M",57 % remaining
same,"% Compound Remaining, single replicates (1st, 2nd, 3rd)","[2]; incubation 90 minutes, 1.0E-06 M, listed as GCM/LEM 3-C",59.1 % remaining and 54.4 % remaining and 53.2 % remaining
same,"% Compound Remaining, mean","[2]; incubation 120 minutes, 1.0E-06 M",51 % remaining
same,"% Compound Remaining, single replicates (1st, 2nd, 3rd)","[2]; incubation 120 minutes, 1.0E-06 M, listed as GCM/LEM 3-C",53.3 % remaining and 52.1 % remaining and 48.9 % remaining
CCCCC[C@@H](C)/C=C(/C)C/C(C)=C/[C@@H](C)CCCCCC(=O)O [3-D],EC50,[1]; [3],1170 nM
CCCCC[C@H](C)/C=C(/C)C/C(C)=C/[C@H](C)CCCCCC(=O)O [3-E],EC50,[1]; [3],959 nM
CCCCC[C@H](C)/C=C(/C)C/C(C)=C/[C@@H](C)CCCCCC(=O)O [3-F],EC50,[1]; [3],892 nM
same,EC50,[1]; [5],900 nM
same,TLX max. efficacy,[1],71%
CCCC/C=C(/C)C/C(C)=C/[C@H](C)CCCCCCCC(=O)O [4-A],EC50,[1]; [3],1520 nM
CCCC/C=C(/C)C/C(C)=C/[C@@H](C)CCCCCCCC(=O)O [4-B],EC50,[1]; [3],2970 nM
CCC[C@@H](C)/C=C(/C)C/C(C)=C/[C@H](C)CCCCCCCC(=O)O [4-C],activity against GPR120,"GPR120; from Figure 6A, 15 μM",inactive
same,EC50,[1]; [3],1530 nM
CCC[C@@H](C)/C=C(/C)C/C(C)=C/[C@@H](C)CCCCCCCC(=O)O [4-D],EC50,[1]; [3],1570 nM
CCC[C@H](C)/C=C(/C)C/C(C)=C/[C@H](C)CCCCCCCC(=O)O [4-E],EC50,[1]; [3],1320 nM
CCC[C@H](C)/C=C(/C)C/C(C)=C/[C@@H](C)CCCCCCCC(=O)O [4-F],EC50,[1]; [3],1890 nM
"CCN(CC)CCN1C(=O)CN=C(c2ccccc2F)c2cc(Cl)ccc21 [Flurazepam, reference compound]","Half-life, single replicates (1st, 2nd, 3rd)","[2]; human hepatocytes, 1.0E-06 M",47.8 min and 53.7 min
same,hepatocyte CLint at 1 µM,[2]; hepatocytes,19.3 µL/min/1e6 cells
same,half-life at 1 µM,"[2]; hepatocytes, Half-life (mean), human hepatocytes, 1.0E-06 M",51 min
same,half-life at 1 µM,"[2]; hepatocytes, Half-life, single replicates (1st, 2nd, 3rd), human hepatocytes, 1.0E-06 M",52.9 min
"O=c1cc(C(F)(F)F)c2ccc(O)cc2o1 [HFC, reference compound]",CLint,"[2]; human hepatocytes, 1.0E-06 M",47.3 μL/min/million cells
same,Half-life (mean),"[2]; human hepatocytes, 1.0E-06 M",21 min
same,"Half-life, single replicates (1st, 2nd, 3rd)","[2]; human hepatocytes, 1.0E-06 M",20.9 min and 21.1 min and 20.8 min
"C=CCN1CC[C@]23c4c5ccc(O)c4O[C@H]2C(=O)CC[C@@]3(O)[C@H]1C5 [Naloxone, reference compound]","Half-life, single replicates (1st, 2nd, 3rd)","[2]; human hepatocytes, 1.0E-06 M",88.2 min and 111.1 min
same,hepatocyte CLint at 1 µM,[2]; [6],10.1 µL/min/1e6 cells
same,half-life at 1 µM,[2]; [7],99 min
same,half-life at 1 µM,[2]; [8],96.4 min
"CC(C)NCC(O)COc1cccc2ccccc12 (stereo not shown) [Propanolol, Propranolol, reference compound]",half-life at 1 µM,[2]; [7],187 min
same,half-life at 1 µM,[2]; [8],195 min

# From article PMC10906247, “From Functional Fatty Acids to Potent and Selective Natural-Product-Inspired Mimetics via Conformational Profiling” (ACS Central Science, 2024)
